The target in one test is BRD2-BD1 (Homo sapiens (Human), UniProt P25440). Nature of the test: AlphaLisa bromodomain binding assay, BRD2-BD1. As to conditions: Table 6; read-out: BRD2(1) IC50. From the text: (§1) An AlphaLisa assay was used to observe bromodomain binding and measure IC50s for the compounds disclosed herein. An AlphaLisa assay is a bead-based assay used to detect interactions between bromodomains and polyacetylated histone peptides. Donor and acceptor beads bound to target and ligand are brought into proximity by this protein-protein interaction.
(§2) Equipment Required • 1. […] Plate centrifuge • 3. Plate shaker • 4. […] Single channel and multi-channel pipettes • 6. Microplate reader (Pherastar)
(§3) Stock and Final Assay Concentrations (FAC) • 1. All reference and test compounds are made at a concentration of 10 mM in DMSO. Compounds are serially diluted in DMSO and a FAC starting from 10 μM to 10 point 3 fold serial dilutions is arrived. FAC of DMSO is 1%. • 2. Enzyme stock and FAC
(§4) Biotinylated substrate (Acetylated histone H4, biotinylated substrate—cat no. AS64989-025, Anaspec) stock and FAC
(§5) • 4. Acceptor and donor beads stock and FAC
(§6) Buffers • For the enzyme and substrate dilution following buffer is used (for 50 ml) • HEPES: 50 mM 2.5 ml • NaCl: 25 mM 1.25 ml • DTT: 10 mM 0.05 ml • BSA: 0.1% 0.05 g • MilliQ water: 45.7 ml • For dilution of acceptor and donor beads AlphaLISA 5× epigenetics Buffer Perkin Elmer (Cat: AL008C) is used at 1× concentration.
(§7) Procedure • 1. […] Tap the plate gently • 3. […] Cover with plate sealer • 5. […] Incubate the plate at room temperature for 10 minutes • 7. Add 10 μl of the substrate • 8. Cover with plate sealer • 9. […] Cover with plate sealer • 14. […] Cover with plate sealer • 18.
(§8) The percent inhibition is calculated in the excel analysis template and the IC50 values are subsequently determined using a sigmoidal dose-response curve (variable slope) using GraphPad Prism® 5 software.
A general note: Alpha assays give light when donor and acceptor beads are brought close together.

Another test addresses BRD4-BD2 (Homo sapiens (Human), UniProt O60885). Nature of the test: AlphaLisa bromodomain binding assay, BRD4-BD2. As to conditions: Table 6; read-out: BRD4(2) IC50.
Source text: as §1, §2, §3, §4, §5, §6, §7, §8

Another test deals with BRD4-BD1 (Homo sapiens (Human), UniProt O60885). Nature of the test: AlphaLisa bromodomain binding assay, BRD4-BD1. As to conditions: Table 6; read-out: BRD4(1) IC50.
Another test has as its target BRDT-BD1 (Homo sapiens (Human), UniProt Q58F21). Nature of the test: AlphaLisa bromodomain binding assay, BRDT-BD1. The note with it: Table 6; read-out: BRDT(1) IC50.
Source text: as §1, §2, §3, §4, §5, §6, §7, §8

In another test the target is JAK1 (Homo sapiens (Human), UniProt P23458). Nature of the test: HTRF kinase assay, JAK1. It is filed as biochemical. The note with it: Table 6.
Source text: (§9) A kinase assay with HTRF was used to observe JAK activity and calculate the IC50s of compounds disclosed herein. HTRF is an enzymatic assay used to determine the amount of phosphorylated peptide. FRET (Fluorescence Resonance Energy Transfer) is based on the transfer of energy between two fluorophores—a donor and an acceptor—when in close proximity. Molecular interactions between biomolecules can be assessed by coupling each partner with a fluorescent label and by detecting the level of energy transfer. The amount of phopshorylated peptide can be detected using a combination of a Eu 3+Cryptate labeled anti-phospho residue antibody, SA-XL665 and a biotinylated substrate. The signal is proportional to the concentration of phospho-residues.
(§10) Equipment Required • 1. […] Plate centrifuge • 3. Plate shaker • 4. […] Single channel and multi-channel pipettes • 6. Microplate reader (Pherastar)]
(§11) Stock and Final Assay Concentrations (FAC) • 1. All reference and test compounds are made at a concentration of 10 mM in DMSO. Compounds are serially diluted in DMSO and a FAC starting from 10 μM to 10 point 3 fold serial dilutions is arrived. For Ruxolitinib the starting FAC is 1 μM. FAC of DMSO is 1%. • 2. Enzyme stock and FAC
(§12) • JAK-1: Invtirogen Cat: PR8767C • JAK-2: Invtirogen Cat: PR7820B • JAK-3: Invtirogen Cat: PR7507B • 3. Substrate (synthetic peptide-Biotinylated-N-terminal tag-[…] from Biopeptide) stock and FAC
(§13) • Adenosine 5′-triphosphate disodium salt hydrate: Sigma Cat: A26209 • 5. […] Buffers • Base buffer (for 50 ml)
(§14) • HTRF buffer: • 50 mM Tris-HCl, pH—7.5 • 100 mM NaCl • 0.1% BSA • 0.05% Tween20 • 0.5 mM EDTA
(§15) To a 384 well black-plate: • 1. Add 17 μL of the buffer to each well of the 384-well black plate • 2. […] Add 5 μl of the enzyme to each well of the plate • 4. Add 10 μl of the substrate and ATP mix to all the wells • 5. Cover with plate sealer • 6. […] Incubate at room temperature for 1 hour on shaker • 8. […] Add 37.5 μL of the HTRF mix to these wells. • 9. Incubate the plate at room temperature on shaker for 45 minutes. • 10.
as §8

The next test deals with JAK2 (Homo sapiens (Human), UniProt O60674). Nature of the test: HTRF kinase assay, JAK2. It is filed as biochemical. As to conditions: Table 6.
In another test the target is JAK3 (Homo sapiens (Human), UniProt P52333). Nature of the test: HTRF kinase assay, JAK3. It counts as biochemical. The note with it: Table 6.
Source text: as §9, §10, §11, §12, §13, §14, §15, §8
Background: TR-FRET usually uses a lanthanide donor and a delayed reading to cut background.

A further test deals with BRD3-BD1 (Homo sapiens (Human), UniProt Q15059). Nature of the test: AlphaLisa bromodomain binding assay, BRD3-BD1. As to conditions: Table 6; read-out: BRD3(1) IC50.
Source text: as §1, §2, §3, §4, §5, §6, §7, §8

Each structure is given as a SMILES string.

By IC50 is commonly meant the concentration that gives 50% inhibition.

Sequence of BRD3-BD1 (Q15059 34-140): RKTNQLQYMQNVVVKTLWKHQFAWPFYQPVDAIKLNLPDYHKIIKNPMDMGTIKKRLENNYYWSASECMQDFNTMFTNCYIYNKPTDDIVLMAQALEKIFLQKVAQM
Sequence of BRD2-BD1 (P25440 74-180): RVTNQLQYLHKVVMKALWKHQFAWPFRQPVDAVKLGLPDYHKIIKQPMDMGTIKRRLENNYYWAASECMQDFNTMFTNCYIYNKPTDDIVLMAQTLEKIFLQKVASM
Sequence of JAK1 (P23458 whole entry): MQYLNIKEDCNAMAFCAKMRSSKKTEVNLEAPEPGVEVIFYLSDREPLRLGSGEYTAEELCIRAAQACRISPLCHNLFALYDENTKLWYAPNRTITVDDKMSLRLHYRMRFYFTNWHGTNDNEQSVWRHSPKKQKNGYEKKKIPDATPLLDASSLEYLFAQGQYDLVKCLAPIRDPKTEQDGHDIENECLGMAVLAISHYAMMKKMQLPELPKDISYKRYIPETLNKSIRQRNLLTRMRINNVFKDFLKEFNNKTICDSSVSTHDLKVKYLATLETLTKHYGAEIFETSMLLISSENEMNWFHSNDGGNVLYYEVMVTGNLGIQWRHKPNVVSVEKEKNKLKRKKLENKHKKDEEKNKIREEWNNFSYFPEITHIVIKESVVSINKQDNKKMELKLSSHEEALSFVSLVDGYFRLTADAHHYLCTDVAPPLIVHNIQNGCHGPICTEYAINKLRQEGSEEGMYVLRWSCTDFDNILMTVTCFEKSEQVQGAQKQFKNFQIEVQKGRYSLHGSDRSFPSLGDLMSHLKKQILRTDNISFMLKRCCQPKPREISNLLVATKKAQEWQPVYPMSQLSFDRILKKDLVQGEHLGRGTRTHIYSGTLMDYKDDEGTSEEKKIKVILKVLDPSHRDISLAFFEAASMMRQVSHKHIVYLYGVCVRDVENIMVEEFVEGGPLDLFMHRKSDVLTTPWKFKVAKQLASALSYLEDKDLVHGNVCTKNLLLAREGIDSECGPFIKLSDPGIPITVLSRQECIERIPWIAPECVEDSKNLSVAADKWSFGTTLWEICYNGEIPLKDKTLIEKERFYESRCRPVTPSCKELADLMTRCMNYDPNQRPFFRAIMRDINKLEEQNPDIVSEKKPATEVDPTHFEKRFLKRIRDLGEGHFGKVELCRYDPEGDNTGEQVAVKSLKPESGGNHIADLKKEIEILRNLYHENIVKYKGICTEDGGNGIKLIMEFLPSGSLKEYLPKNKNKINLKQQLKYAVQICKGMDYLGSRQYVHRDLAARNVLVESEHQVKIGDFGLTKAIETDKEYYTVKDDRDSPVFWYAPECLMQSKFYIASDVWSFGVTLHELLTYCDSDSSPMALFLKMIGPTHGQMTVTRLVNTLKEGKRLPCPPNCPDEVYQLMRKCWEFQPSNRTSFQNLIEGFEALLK
Sequence of JAK2 (O60674 whole entry): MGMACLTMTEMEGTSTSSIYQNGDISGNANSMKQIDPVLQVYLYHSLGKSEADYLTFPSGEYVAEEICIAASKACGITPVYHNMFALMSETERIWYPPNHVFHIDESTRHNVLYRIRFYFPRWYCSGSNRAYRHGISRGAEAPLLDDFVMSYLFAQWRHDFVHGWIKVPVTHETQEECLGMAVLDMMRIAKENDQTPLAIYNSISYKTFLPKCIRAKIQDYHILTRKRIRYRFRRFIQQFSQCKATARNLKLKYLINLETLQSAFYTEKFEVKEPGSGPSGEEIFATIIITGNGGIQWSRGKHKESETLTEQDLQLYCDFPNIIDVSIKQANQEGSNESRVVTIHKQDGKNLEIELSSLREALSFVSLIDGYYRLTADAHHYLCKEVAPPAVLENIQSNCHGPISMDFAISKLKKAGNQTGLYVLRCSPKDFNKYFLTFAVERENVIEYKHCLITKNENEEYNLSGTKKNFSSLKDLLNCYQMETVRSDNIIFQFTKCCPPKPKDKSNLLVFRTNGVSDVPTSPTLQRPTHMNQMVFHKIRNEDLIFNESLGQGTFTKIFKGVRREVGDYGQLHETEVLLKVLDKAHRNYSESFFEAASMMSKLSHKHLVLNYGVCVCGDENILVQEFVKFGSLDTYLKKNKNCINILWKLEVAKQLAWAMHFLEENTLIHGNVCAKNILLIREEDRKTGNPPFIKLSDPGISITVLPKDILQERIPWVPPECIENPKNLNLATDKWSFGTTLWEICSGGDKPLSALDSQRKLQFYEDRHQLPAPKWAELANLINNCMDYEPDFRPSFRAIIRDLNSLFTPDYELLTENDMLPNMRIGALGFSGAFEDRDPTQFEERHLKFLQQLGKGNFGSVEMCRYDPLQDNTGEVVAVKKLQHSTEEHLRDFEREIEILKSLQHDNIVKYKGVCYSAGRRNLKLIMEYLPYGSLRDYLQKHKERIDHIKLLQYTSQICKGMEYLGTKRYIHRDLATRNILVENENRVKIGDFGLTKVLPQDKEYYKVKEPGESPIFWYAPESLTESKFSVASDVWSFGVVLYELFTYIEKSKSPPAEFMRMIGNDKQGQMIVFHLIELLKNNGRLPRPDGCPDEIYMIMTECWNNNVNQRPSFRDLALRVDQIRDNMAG
Sequence of JAK3 (P52333 whole entry): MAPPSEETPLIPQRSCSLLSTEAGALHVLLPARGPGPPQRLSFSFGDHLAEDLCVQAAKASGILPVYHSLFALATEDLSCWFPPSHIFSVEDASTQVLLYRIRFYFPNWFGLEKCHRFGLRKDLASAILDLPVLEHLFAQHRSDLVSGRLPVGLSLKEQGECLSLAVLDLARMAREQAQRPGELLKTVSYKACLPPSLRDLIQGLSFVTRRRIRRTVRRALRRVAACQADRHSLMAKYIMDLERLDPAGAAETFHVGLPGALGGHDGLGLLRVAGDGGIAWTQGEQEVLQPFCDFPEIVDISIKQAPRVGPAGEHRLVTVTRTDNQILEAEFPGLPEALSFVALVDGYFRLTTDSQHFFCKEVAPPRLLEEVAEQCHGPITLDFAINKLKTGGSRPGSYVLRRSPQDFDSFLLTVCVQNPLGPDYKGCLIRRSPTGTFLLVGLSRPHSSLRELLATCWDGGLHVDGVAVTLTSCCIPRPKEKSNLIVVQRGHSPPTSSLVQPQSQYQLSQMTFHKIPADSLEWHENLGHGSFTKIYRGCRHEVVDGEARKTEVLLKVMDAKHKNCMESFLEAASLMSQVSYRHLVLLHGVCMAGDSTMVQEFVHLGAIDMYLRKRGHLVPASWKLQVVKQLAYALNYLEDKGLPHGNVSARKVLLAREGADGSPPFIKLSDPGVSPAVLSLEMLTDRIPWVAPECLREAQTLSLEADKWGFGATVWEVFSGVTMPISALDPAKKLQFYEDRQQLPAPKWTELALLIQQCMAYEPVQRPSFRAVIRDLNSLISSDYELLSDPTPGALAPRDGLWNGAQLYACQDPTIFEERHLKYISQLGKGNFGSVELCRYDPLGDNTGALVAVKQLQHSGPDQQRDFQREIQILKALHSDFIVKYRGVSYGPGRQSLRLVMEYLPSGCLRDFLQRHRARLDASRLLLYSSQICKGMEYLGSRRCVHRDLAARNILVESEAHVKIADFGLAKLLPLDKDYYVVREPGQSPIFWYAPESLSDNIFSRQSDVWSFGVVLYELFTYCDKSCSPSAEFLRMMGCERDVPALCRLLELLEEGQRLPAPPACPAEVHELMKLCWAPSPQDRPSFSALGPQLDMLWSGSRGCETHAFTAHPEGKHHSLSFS

Regarding `CNC1CCN(c2ccc(Nc3ncc4scc(-c5ccc(F)c(NS(=O)(=O)C(C)(C)C)c5)c4n3)cc2F)CC1` [drawing 458], the IC50 at BRD2-BD1 was found to be 0.67 µM; on BRD4-BD2, 0.092 µM; at BRD4-BD1 it was 0.192 µM; on BRDT-BD1, 0.223 µM; at JAK1, 1.2 µM; at JAK2, 0.01 µM. The IC50 came out at 0.082 µM on JAK3 and 0.154 µM on BRD3-BD1.

Regarding `CC(C)(C)S(=O)(=O)Nc1cc(-n2ccc3cnc(Nc4cc(F)c5c(c4)CC4CNCCN54)nc32)ccc1F` (stereo not drawn) [drawing 465], the IC50 came to 0.353 µM on BRD2-BD1; 0.12 µM on BRD4-BD2; 0.115 µM on BRD4-BD1; 0.292 µM on BRDT-BD1; 10 µM at JAK1; 0.061 µM at JAK2. Moreover, the IC50 is 0.285 µM on JAK3 and 0.083 µM on BRD3-BD1.

In the case of `CC(C)(C)S(=O)(=O)Nc1cccc(-n2ccc3cnc(Nc4ccc(C(=O)N5CCNCC5)c(F)c4)nc32)c1` [drawing 463], the IC50 amounted to 0.369 µM on BRD2-BD1; 0.054 µM on BRD4-BD2; 0.082 µM on BRD4-BD1; 0.194 µM at BRDT-BD1; 0.587 µM at JAK1; 0.028 µM on JAK2. Moreover, the IC50 came to 0.334 µM at JAK3 and 0.123 µM at BRD3-BD1.

`CN(C)C1CCN(c2ccc(Nc3ncc4scc(-c5ccc(F)c(NS(=O)(=O)C(C)(C)C)c5)c4n3)cc2F)CC1`: the IC50 at BRD2-BD1 came out at 0.292 µM; on BRD4-BD2, 0.091 µM; on BRD4-BD1, 0.108 µM; at BRDT-BD1, 0.177 µM; on JAK1 it was 0.927 µM; at JAK2 it was 0.008 µM. Besides, the 50% inhibitory concentration (IC50) on JAK3 is 0.097 µM; on BRD3-BD1 it was 0.11 µM.

As for `CN(C)C1CCN(c2ccc(Nc3ncc4ccn(-c5ccc(F)c(NS(=O)(=O)C(C)(C)C)c5)c4n3)cc2F)CC1` [drawing 366], the IC50 at BRD2-BD1 came to 0.231 µM; at BRD4-BD2 it was 0.088 µM; at BRD4-BD1, 0.063 µM; on BRDT-BD1, 0.14 µM; on JAK1, 2.1 µM; at JAK2 it was 0.027 µM. Further, the IC50 was 0.193 µM on JAK3 and 0.049 µM at BRD3-BD1.

`CC(C)(C)S(=O)(=O)Nc1cc(-n2ccc3cnc(Nc4cc(F)c5c(c4)CC4CNCCN54)nc32)ccc1F` (stereo not drawn) [drawing 443]: the IC50 on BRD2-BD1 came to 0.235 µM; on BRD4-BD2, 0.085 µM; on BRD4-BD1, 0.079 µM; on BRDT-BD1, 0.185 µM; on JAK1 it was 3.7 µM; on JAK2 it was 0.04 µM. Also, the IC50 amounted to 0.206 µM on JAK3 and 0.081 µM at BRD3-BD1.

Turning to `CC(C)(C)S(=O)(=O)Nc1cc(-n2ccc3cnc(Nc4ccc(N5CCNCC5)c(F)c4)nc32)ccc1F` [drawing 428], the IC50 on BRD2-BD1 worked out at 0.216 µM; on BRD4-BD2 it was 0.064 µM; on BRD4-BD1, 0.06 µM; at BRDT-BD1, 0.118 µM; at JAK1 it was 2.1 µM; on JAK2, 0.033 µM. Further, the IC50 on JAK3 was found to be 0.272 µM; at BRD3-BD1, 0.059 µM.

For the compound `O=S(=O)(Nc1cccc(-n2ccc3cnc(Nc4ccc(N5CCNCC5)cc4)nc32)c1)C1CC1` [drawing 296], the IC50 on BRD2-BD1 was 2.96 µM; at BRD4-BD2, 0.574 µM; on BRD4-BD1 it was 0.677 µM; at BRDT-BD1 it was 1.21 µM; at JAK1 it was 0.188 µM; at JAK2 it was 0.002 µM. Also, the IC50 at JAK3 was 0.015 µM; on BRD3-BD1, 0.914 µM.

Regarding `CC(C)(C)S(=O)(=O)Nc1cccc(-c2csc3cnc(Nc4ccc(N5CCNCC5)c(F)c4)nc23)c1`, the 50% inhibitory concentration (IC50) was found to be 0.506 µM at BRD2-BD1; 0.193 µM on BRD4-BD2; 0.295 µM on BRD4-BD1; 0.308 µM on BRDT-BD1; 0.169 µM on JAK1; 0.002 µM at JAK2. Also, the IC50 turned out to be 0.061 µM at JAK3 and 0.181 µM at BRD3-BD1.

With `COc1cc(Nc2ncc3ccn(-c4cccc(NS(=O)(=O)C(C)(C)C)c4)c3n2)ccc1N1CCNCC1`, the IC50 on BRD2-BD1 stood at 0.548 µM; on BRD4-BD2 it was 0.128 µM; at BRD4-BD1 it was 0.402 µM; on BRDT-BD1, 0.32 µM; at JAK1, 0.275 µM; at JAK2, 0.0028 µM. Moreover, the IC50 on JAK3 is 0.112 µM; on BRD3-BD1 it was 0.142 µM.

`CN1CCC(NC(=O)c2ccc(Nc3ncc4ccn(-c5cccc(NS(=O)(=O)C(C)(C)C)c5)c4n3)cc2F)CC1`: the IC50 came to 0.314 µM at BRD2-BD1; 0.156 µM on BRD4-BD2; 0.24 µM at BRD4-BD1; 0.23 µM on BRDT-BD1; 0.057 µM on JAK1; 0.0115 µM on JAK2. Besides, the IC50 on JAK3 was determined as 0.103 µM; at BRD3-BD1 it was 0.089 µM.

In the case of `CC(C)(C)S(=O)(=O)Nc1cccc(-n2ccc3cnc(Nc4ccc(C(=O)N5CCNCC5)c(F)c4)nc32)c1` [drawing 462], the half-maximal inhibitory concentration (IC50) on BRD2-BD1 was 0.473 µM; at BRD4-BD2 it was 0.054 µM; at BRD4-BD1, 0.125 µM; on BRDT-BD1, 0.268 µM; on JAK1, 0.992 µM; at JAK2, 0.052 µM. The IC50 was found to be 0.403 µM on JAK3 and 0.158 µM at BRD3-BD1.

`CN1CCN(c2ccc(Nc3ncc4ccn(-c5ccc(F)c(NS(=O)(=O)C(C)(C)C)c5)c4n3)cc2)CC1` [drawing 295]: the IC50 stood at 0.49 µM at BRD2-BD1; 0.0675 µM on BRD4-BD2; 0.128 µM at BRD4-BD1; 0.182 µM on BRDT-BD1; 0.972 µM at JAK1; 0.035 µM at JAK2. The values for the 50% inhibitory concentration (IC50) on JAK3 and on BRD3-BD1 were 0.105 µM and 0.109 µM, respectively.

As to `CNC1CCN(c2ccc(Nc3ncc4ccn(-c5ccc(F)c(NS(=O)(=O)C(C)(C)C)c5)c4n3)cc2F)CC1` [drawing 456], the half-maximal inhibitory concentration (IC50) on BRD2-BD1 is 0.36 µM; on BRD4-BD2, 0.086 µM; on BRD4-BD1 it was 0.123 µM; at BRDT-BD1 it was 0.185 µM; at JAK1, 1.5 µM; at JAK2, 0.039 µM. In addition, the IC50 came to 0.173 µM on JAK3 and 0.097 µM at BRD3-BD1.

In the case of `CN1CCN(c2ccc(Nc3ncc4ccn(-c5cccc(NS(=O)(=O)C(C)(C)C)c5)c4n3)cc2C#N)CC1`, the half-inhibitory concentration (IC50) at BRD2-BD1 is 1.15 µM; at BRD4-BD2, 0.491 µM; on BRD4-BD1, 0.378 µM; on BRDT-BD1, 1 µM; on JAK1, 1.1 µM; at JAK2, 0.0189 µM. Moreover, the IC50 worked out at 0.338 µM on JAK3 and 0.248 µM at BRD3-BD1.

(Values after patent publication US11279703B2, “Fused pyrimidine compounds as BRD4 and JAK2 dual inhibitors and methods for use thereof” (APTOSE BIOSCIENCES INC., priority 2016, dated 2022).)
